# System: RSV Long strain
# Test: Viral cytopathic effect (CPE) assay, anti-RSV activity
# Format: cell-based, Respiratory Syncytial Virus
# Conditions: human respiratory syncytial virus, 144 h, RSV Long strain (ATCC); cell viability after 6 days, Cell Counting kit-8
# Summary of the method: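 Cells (6×10^3/well, DMEM with 10% FBS) were infected next day with RSV Long strain, at a dose giving approximately 80–90% CPE, alongside serial half-log compound dilutions. Viability was read after 6 days by CCK-8 absorbance at 450 nm (reference 630 nm), and EC50 was derived from it.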
row,EC50,SMILES
1,9.2 µM,"Cc1ccc2nc(N3CCS(=O)(=O)c4ccccc4C3)cc(NCCN3CCS(=O)(=O)CC3)c2c1 [Example 5-1, 2-(1,1-Dioxido-2,3-dihydro-1,4-benzothiazepin-4(5H)-yl)-N-[2-(1,1-dioxidothiomorpholin-4-yl)ethyl]-6-methylquinolin-4-amine]"
2,0.211 µM,"Cc1ccc2nc(N3CCS(=O)(=O)c4ccccc4C3)cc(NCCOCCN)c2c1 [Example 5-2, N-[2-(2-Aminoethoxy)ethyl]-2-(1,1-dioxido-2,3-dihydro-1,4-benzothiazepin-4(5H)-yl)-6-methylquinolin-4-amine]"
3,0.015 µM,"Cc1ccc2nc(N3CCS(=O)(=O)c4ccccc4C3)cc(NCC(C)(C)N)c2c1 [Example 5-3, N˜1˜-[2-(1,1-Dioxido-2,3-dihydro-1,4-benzothiazepin-4(5H)-yl)-6-methylquinolin-4-yl]-2-methylpropane-1,2-diamine]"
4,0.326 µM,"CC(C)(N)CNc1cc(N2CCS(=O)(=O)c3ccccc3C2)nc2ccccc12 [Example 5-4, N˜1˜-[2-(1,1-Dioxido-2,3-dihydro-1,4-benzothiazepin-4(5H)-yl)quinolin-4-yl]-2-methylpropane-1,2-diamine]"
5,0.014 µM,"Cc1ccc2nc(N3CCS(=O)(=O)c4ccccc4C3)cc(NCC(C)N)c2c1 (stereo not shown) [Example 5-5, N˜1˜-[2-(1,1-Dioxido-2,3-dihydro-1,4-benzothiazepin-4(5H)-yl)-6-methylquinolin-4-yl]propane-1,2-diamine]"
6,2.06 µM,"Cc1ccc2nc(N3CCS(=O)(=O)c4ccccc4C3)cc(N3CCN(C)CC3)c2c1 [Example 5-6, 4-[6-Methyl-4-(4-methylpiperazin-1-yl)quinolin-2-yl]-2,3,4,5-tetrahydro-1,4-benzothiazepine 1,1-dioxide]"
7,0.941 µM,"Cc1ccc2nc(N3CCS(=O)(=O)c4ccccc4C3)cc(NCC(C)O)c2c1 (stereo not shown) [Example 5-7, 1-{[2-(1,1-Dioxido-2,3-dihydro-1,4-benzothiazepin-4(5H)-yl)-6-methylquinolin-4-yl]amino}propan-2-ol]"
8,0.022 µM,"Cc1ccc2nc(N3CCS(=O)(=O)c4ccccc4C3)cc(NC[C@H](C)N)c2c1 [Example 5-8, (2S)—N˜1˜-[2-(1,1-Dioxido-2,3-dihydro-1,4-benzothiazepin-4(5H)-yl)-6-methylquinolin-4-yl]propane-1,2-diamine]"
9,0.018 µM,"Cc1ccc2nc(N3CCS(=O)(=O)c4ccccc4C3)cc(NC[C@@H](C)N)c2c1 [Example 5-9, (2R)—N˜1˜-[2-(1,1-Dioxido-2,3-dihydro-1,4-benzothiazepin-4(5H)-yl)-6-methylquinolin-4-yl]propane-1,2-diamine]"
10,0.397 µM,"Cc1cc2c(NCC3(N)COC3)cc(N3CCS(=O)(=O)c4ccccc4C3)nc2c(F)c1F [Example 5-10, N-[(3-Aminooxetan-3-yl)methyl]-2-(1,1-dioxido-2,3-dihydro-1,4-benzothiazepin-4(5H)-yl)-7,8-difluoro-6-methylquinolin-4-amine]"
11,0.526 µM,"Cc1ccc2nc(N3CCS(=O)(=O)c4ccccc4C3)cc(NCCNCC(F)F)c2c1 [Example 5-11, N-(2,2-Difluoroethyl)-N′-[2-(1,1-dioxido-2,3-dihydro-1,4-benzothiazepin-4(5H)-yl)-6-methylquinolin-4-yl]ethane-1,2-diamine]"
12,6.25 µM,"Cc1ccc2nc(N3CCS(=O)(=O)c4ccccc4C3)cc(NC3(CCO)COC3)c2c1 [Example 5-12, 3-{[2-(1,1-Dioxido-2,3-dihydro-1,4-benzothiazepin-4(5H)-yl)-6-methylquinolin-4-yl]amino}oxetan-3-ethanol]"
13,0.025 µM,"Cc1ccc2nc(N3CCS(=O)(=O)c4ccccc4C3)cc(NCC3(CN)CSC3)c2c1 [Example 6-1, N-{[3-(Aminomethyl)thietan-3-yl]methyl}-2-(1,1-dioxido-2,3-dihydro-1,4-benzothiazepin-4(5H)-yl)-6-methylquinolin-4-amine]"
14,0.908 µM,"Cc1ccc2nc(N3CCS(=O)(=O)c4ccccc4C3)cc(NCC3(CN)CS(=O)(=O)C3)c2c1 [Example 6-2, N-{[3-(Aminomethyl)-1,1-dioxidothietan-3-yl]methyl}-2-(1,1-dioxido-2,3-dihydro-1,4-benzothiazepin-4(5H)-yl)-6-methylquinolin-4-amine]"
15,1.42 µM,"Cc1ccc2nc(N3CCS(=O)(=O)c4ccccc4C3)cc(NC3=NCCN3)c2c1 [Example 7, N-(4,5-Dihydro-1H-imidazol-2-yl)-2-(1,1-dioxido-2,3-dihydro-1,4-benzothiazepin-4(5H)-yl)-6-methylquinolin-4-amine]"
16,5.51 µM,"Cc1ccc2nc(N3CCS(=O)(=O)c4ccccc4C3)cc(N[C@H]3CC[C@H](O)CC3)c2c1 [Example 8-1, trans-4-{[2-(1,1-Dioxido-2,3-dihydro-1,4-benzothiazepin-4(5H)-yl)-6-methylquinolin-4-yl]amino}cyclohexanol]"
17,0.817 µM,"Cc1ccc2nc(N3CCS(=O)(=O)c4ccccc4C3)cc(N[C@@H](C)CO)c2c1 [Example 8-2, (2S)-2-{[2-(1,1-Dioxido-2,3-dihydro-1,4-benzothiazepin-4(5H)-yl)-6-methylquinolin-4-yl]amino}propan-1-ol]"

row,EC50,SMILES
1,0.074 µM,"Cc1ccc2nc(N3CCS(=O)(=O)c4ccccc4C3)cc(N3C[C@@H]4NCCO[C@@H]4C3)c2c1 [Example 8-5, 4-{4-[(4aS,7aR)-Hexahydropyrrolo[3,4-b][1,4]oxazin-6(2H)-yl]-6-methylquinolin-2-yl}-2,3,4,5-tetrahydro-1,4-benzothiazepine 1,1-dioxide]"
2,3.77 µM,"Cc1ccc2nc(N3CCS(=O)(=O)c4ccccc4C3)cc(N3C[C@@H](O)[C@H](N4CCN(C)CC4)C3)c2c1 [Example 8-6, (3R,4R)-1-[2-(1,1-Dioxido-2,3-dihydro-1,4-benzothiazepin-4(5H)-yl)-6-methylquinolin-4-yl]-4-(4-methylpiperazin-1-yl)pyrrolidin-3-ol]"
3,0.322 µM,"Cc1ccc2nc(N3CCS(=O)(=O)c4ccccc4C3)cc(NCCSCCN)c2c1 [Example 8-7, N-{2-[(2-Aminoethyl)sulfanyl]ethyl}-2-(1,1-dioxido-2,3-dihydro-1,4-benzothiazepin-4(5H)-yl)-6-methylquinolin-4-amine]"
4,2.35 µM,"Cc1ccc2nc(N3CCS(=O)(=O)c4ccccc4C3)cc(N3CCC(CN)CC3)c2c1 [Example 9-1, 1-{1-[2-(1,1-Dioxido-2,3-dihydro-1,4-benzothiazepin-4(5H)-yl)-6-methylquinolin-4-yl]piperidin-4-yl}methanamine]"
5,4.77 µM,"COc1ccc2c(c1)S(=O)(=O)CCN(c1cc(NCCO)c3ccccc3n1)C2 [Example 9-2, 2-{[2-(8-M ethoxy-1,1-dioxido-2,3-dihydro-1,4-benzothiazepin-4(5 H)-yl)quinolin-4-yl]amino}ethanol]"
6,0.001 µM,"Cc1ccc2nc(N3CCS(=O)(=O)c4ccccc4C3)cc(NCCCN)c2c1 [Example 9-3, N-[2-(1,1-Dioxido-2,3-dihydro-1,4-benzothiazepin-4(5H)-yl)-6-methylquinolin-4-yl]propane-1,3-diamine]"
7,8.87 µM,"Cc1ccc2nc(N3CCS(=O)(=O)c4ccccc4C3)cc(N3CCOCC3)c2c1 [Example 9-4, 4-[6-Methyl-4-(morpholin-4-yl)quinolin-2-yl]-2,3,4,5-tetrahydro-1,4-benzothiazepine 1,1-dioxide]"
8,0.179 µM,"Cc1ccc2nc(N3CCS(=O)(=O)c4ccccc4C3)cc(NCCCO)c2c1 [Example 9-5, 3-{[2-(1,1-Dioxido-2,3-dihydro-1,4-benzothiazepin-4(5H)-yl)-6-methylquinolin-4-yl]amino}propan-1-ol]"
9,0.275 µM,"Cc1ccc2nc(N3CCS(=O)(=O)c4ccccc4C3)cc(NCCN3CCCCC3)c2c1 [Example 9-6, 2-(1,1-Dioxido-2,3-dihydro-1,4-benzothiazepin-4(5H)-yl)-6-methyl-N-[2-(piperidin-1-yl)ethyl]quinolin-4-amine]"
10,0.002 µM,"Cc1ccc2nc(N3CCS(=O)(=O)c4ccccc4C3)cc(NCC(O)CN)c2c1 (stereo not shown) [Example 9-7, 1-Amino-3-{[2-(1,1-dioxido-2,3-dihydro-1,4-benzothiazepin-4(5H)-yl)-6-methylquinolin-4-yl]amino}propan-2-ol]"
11,3.48 µM,"Cc1ccc2nc(N3CCS(=O)(=O)c4ccccc4C3)cc(NCC(=O)O)c2c1 [Example 9-8, N-[2-(1,1-Dioxido-2,3-dihydro-1,4-benzothiazepin-4(5H)-yl)-6-methylquinolin-4-yl]glycine]"
12,0.157 µM,"NCCNc1cc(N2CCS(=O)(=O)c3ccccc3C2)nc2ccc(F)cc12 [Example 9-9, N-[2-(1,1-Dioxido-2,3-dihydro-1,4-benzothiazepin-4(5H)-yl)-6-fluoroquinolin-4-yl]ethane-1,2-diamine]"
13,0.037 µM,"CCc1ccc2nc(N3CCS(=O)(=O)c4ccccc4C3)cc(NCCN)c2c1 [Example 9-10, N-[2-(1,1-Dioxido-2,3-dihydro-1,4-benzothiazepin-4(5H)-yl)-6-ethylquinolin-4-yl]ethane-1,2-diamine]"
14,0.953 µM,"NCCCNc1cc(N2CCS(=O)(=O)c3ccccc3C2)nc2cc(Cl)ccc12 [Example 9-11, N-[7-Chloro-2-(1,1-dioxido-2,3-dihydro-1,4-benzothiazepin-4(5H)-yl)quinolin-4-yl]propane-1,3-diamine]"
15,2.66 µM,"NCCCNc1cc(N2CCS(=O)(=O)c3ccccc3C2)nc2c(Cl)cccc12 [Example 9-12, N-[8-Chloro-2-(1,1-dioxido-2,3-dihydro-1,4-benzothiazepin-4(5H)-yl)quinolin-4-yl]propane-1,3-diamine]"
16,0.701 µM,"NCCCNc1cc(N2CCS(=O)(=O)c3ccccc3C2)nc2cccc(Cl)c12 [Example 9-13, N-[5-Chloro-2-(1,1-dioxido-2,3-dihydro-1,4-benzothiazepin-4(5H)-yl)quinolin-4-yl]propane-1,3-diamine]"
17,0.025 µM,"Cc1ccc2nc(N3CCS(=O)(=O)c4ccccc4C3)cc(NCC(C)(C)CN)c2c1 [Example 9-14, N-[2-(1,1-Dioxido-2,3-dihydro-1,4-benzothiazepin-4(5H)-yl)-6-methylquinolin-4-yl]-2,2-dimethylpropane-1,3-diamine]"

# Source: patent US8871756B2 (Hoffmann-La Roche Inc., priority 2011, dated 2014)
